The source made the active and inactive calls. The rule behind the calls is not given here.
Legend:
[1] = test system: NCI60; assay: Cytotoxicity against human NCI60 cells; type: functional, cell-based
[2] = test system: DU-145; assay: Cytotoxicity against human DU145 cells; type: functional; conditions: read-out: ED50 (the source's name)

Structure (SMILES): COc1cc([C@@H]2Oc3c(C(C)C)cc4c(=O)cc5c(cc4c3O[C@H]2CO)C=CC(=O)C5(C)C)ccc1O [BREVITAXIN]
- Activity [1]: Active
- EC50 [2]: 6.8 µM

Reference: ChEMBL document CHEMBL1159238, “Brevitaxin, a new diterpenolignan from the bark of Taxus brevifolia” (1995)
